Measured values from patent US20250268736A1, “VASCULAR STENT AND MANUFACTURING PROCESS THEREFOR” (THE SECOND AFFILIATED HOSPITAL OF GUANGZHOU MEDICAL …, priority 2024, published 2025).

How the values were obtained:
neutrophils on HCAECs = experiment: Adhesion of neutrophils to HCAECs on coated 316 L stainless steel; format: cell-based, human; settings: PLGA slow-release coating on 316 L steel, co-culture 1 h; activators in combination with rapamycin
Description: (§1) The effect of APC on a simulated stent environment of PLGA slow-release coating on a 316 L steel sheet is investigated. Slow-release coatings of a solvent control (tetrahydrofuran, THF) wrapped in poly(lactic-co-glycolic acid) (PLGA 75:25), rapamycin (50 μg/mL), APC (50 μg/mL), 40 μM of TR47, and 20 μM of Parmodulin 2, or each in combination with rapamycin (50 μg/mL) are coated on surfaces of 316 L stainless steel plates respectively.
(§2) After HCAECs are grown on the 316 L stainless steel plate for 48 h, the cell viability is tested by a CCK-8 method, the cell multiplication capacity is tested by an EdU method, and the cell migration capacity is tested by a scratch method. […] Calcein-AM staining is followed by fluorescence microscopy.
(§3) The above cells are inoculated on 316 SS, 316 L SS/Rapamycin, 316 L SS/Rapamycin/APC, 316 L SS/Rapamycin/TR47, and 316 L SS/Rapamycin/Parmodulin 2 in a 24-well plate at a density of 2×10^4 cells/mL. 10 μL of CCK-8 reaction solution is added to a 24-well plate according to CCK-8 instructions, and the optical density value (OD value) is measured at 4 h by a spectrophotometer with a wavelength of 450 nm. For EdU analysis, reagent A is added a medium in a 24-well plate and cultured at 37° C. for 4 h to label EdU, and then, cells are captured with a fluorescence microscope (EVOS FL) according to manufacturer's instructions. […]

platelets on HCAECs = experiment: Adhesion of platelets to HCAECs on coated 316 L stainless steel; format: cell-based, human; settings: PLGA slow-release coating on 316 L steel, co-culture 1 h; activators in combination with rapamycin
Description: as §1, §2, §3

HCAECs [1] = experiment: CCK-8 viability of HCAECs on coated 316 L stainless steel; format: cell-based, human; settings: PLGA slow-release coating, 48 h, rapamycin 50 μg/mL, activators in combination with rapamycin
Description: as §1, §2, §3

HCAECs [2] = experiment: EdU multiplication of HCAECs on coated 316 L stainless steel; format: cell-based, human; settings: PLGA slow-release coating, 48 h, rapamycin 50 μg/mL, activators in combination with rapamycin
Description: as §1, §2, §3

[3] = system: endothelial protein C receptor (EPCR); experiment: Western blotting of EPCR expression and EPCR pathway in HCAECs treated with EPCR activators, alone or with rapamycin; format: cell-based, human; settings: for activation of the EPCR pathway in HCAECs / protein expression of the EPCR in HCAECs: 10 μM APC, 40 μM TR47, 20 μM Parmodulin 2, 24 h; for effect on the rapamycin-induced inhibition of the EPCR in HCAECs: activator in combination with 100 nM rapamycin, 24 h
Description: Specifically, HCAECs are cultured in an EBM-2 (Lonza, CC3156) supplemented with a 3% fetal bovine serum (FBS) and endothelial growth factor supplement mixture (Lonza, CC4176) under standard cell culture conditions (37° C., 5% of CO2), and cells of generations of P3-5 are tested at 70%-80%. HCAECs are treated with 10 μM of APC, 40 μM of TR47 and 20 μM of Parmodulin 2, or each in combination with 100 nM of rapamycin for 24 h, and then, western blotting is performed for testing protein expression.

HCAECs [4] = experiment: Scratch migration of HCAECs on coated 316 L stainless steel; format: cell-based, human; settings: PLGA slow-release coating, 48 h, scratch method; rapamycin 50 μg/mL; activators in combination with rapamycin
Description: as §1
After HCAECs are grown on the 316 L stainless steel plate for 48 h, the cell viability is tested by a CCK-8 method, the cell multiplication capacity is tested by an EdU method, and the cell migration capacity is tested by a scratch method. The HCAECs are co-cultured with neutrophils (10^6/well) or platelets (5×10^6/well) labeled with 2 μM of PKH-26 for 1 h. Calcein-AM staining is followed by fluorescence microscopy.

HCAECs [5] = experiment: Growth of HCAECs on coated 316 L stainless steel (stent simulation environment); format: cell-based, human; settings: PLGA slow-release coating, 48 h; rapamycin 50 μg/mL; activators (APC 50 μg/mL, TR47 40 μM, Parmodulin 2 20 μM) in combination with rapamycin
Description: as §1, §2, §3

[6] = system: endothelial protein C receptor (EPCR); experiment: Western blotting of EPCR protein expression in HCAECs treated with limus drugs or paclitaxel; format: cell-based, human; settings: 24 h
Description: (§4) Specifically, HCAECs are cultured in an endothelial cell basal medium (EBM)-2 (Lonza, CC3156) supplemented with a 3% fetal bovine serum (FBS) and endothelial growth factor supplement mixture (Lonza, CC4176) under standard cell culture conditions (37° C., 5% CO2), and P3-5 cells are tested at 70%-80%. Western blotting is performed to test protein expression after HCAECs are treated with rapamycin, zotarolimus, everolimus, and paclitaxel at the doses shown in FIG. 1, or 100 nM of tacrolimus, deforolimus, biolimus A9, and pimecrolimus for 24 h. Alternatively, C57BL6/J mice received rapamycin, zotarolimus, everolimus, and paclitaxel at 2 mg/kg of body weight daily via tail vein injection for 2 weeks, and immunofluorescence observation of tissues is performed.

[7] = system: endothelial protein C receptor (EPCR); experiment: Immunofluorescence of EPCR in mouse cardiac vessels after tail vein injection; format: in vivo; settings: C57BL6/J mice, 2 mg/kg daily via tail vein injection for 2 weeks
Description: as §4

[8] = system: vascular smooth muscle cells (HCASMCs, HASMCs); experiment: EdU cell multiplication of vascular smooth muscle cells; format: cell-based, human; settings: APC 10 μM
Description: (§5) Generations 3-5 of primary human coronary artery smooth muscle cells (HCASMCs) are cultured in a growth medium (Cell applications, cat #31-500). Human arterial smooth muscle cells (HASMCs) are cultured in a smooth muscle cell culture medium containing 2% of FBS and 1% of penicillin/streptomycin at 37° C. in a humidified atmosphere containing 5% of CO2. Ad-EC or Ad-EPCR infected the cells for 48 h. APC is 10 μM, and rapamycin is 100 nM. Fluorescence is observed by a microscope. Protein expression is tested by means of western blotting. The cell viability is tested by means of CCK-8, the cell multiplication capacity is observed by means of EdU, and the migration capacity is evaluated by means of Transwel chamber and scratch tests.

[9] = system: vascular smooth muscle cells (HCASMCs, HASMCs); experiment: CCK-8 cell viability of vascular smooth muscle cells; format: cell-based, human; settings: APC 10 μM
Description: as §5

[10] = system: vascular smooth muscle cells (HCASMCs, HASMCs); experiment: Transwel chamber and scratch migration tests of vascular smooth muscle cells; format: cell-based, human; settings: APC 10 μM
Description: as §5

[11] = doses shown in FIG. 1, western blotting

## CCCC(=O)Nc1cccc(NC(=O)c2ccccc2Br)c1 [Parmodulin 2]
Neutrophils on HCAECs
  adhesion of neutrophils to surface of ECs: inhibit adhesion
Platelets on HCAECs
  adhesion of platelets to surface of ECs: inhibit adhesion
HCAECs [1]
  viability of HCAECs on 316 L stainless steel: restore
HCAECs [2]
  multiplication of HCAECs on 316 L stainless steel: restore
[3]
  activation of the EPCR pathway in HCAECs: protectively activate the EPCR pathway
  protein expression of the EPCR in HCAECs: induce protein expression of the EPCR in the cells
  effect on the rapamycin-induced inhibition of the EPCR in HCAECs: antagonize the inhibitory effect of limus drugs such as rapamycin on the EPCR
HCAECs [4]
  migration of HCAECs on 316 L stainless steel: restore
HCAECs [5]
  growth of HCAECs on 316 L stainless steel: restore

## CCOCCO[C@@H]1CC[C@@H](C[C@@H](C)[C@@H]2CC(=O)[C@H](C)/C=C(\C)[C@@H](O)[C@@H](OC)C(=O)[C@H](C)C[C@H](C)/C=C/C=C/C=C(\C)[C@@H](OC)C[C@@H]3CC[C@@H](C)[C@@](O)(O3)C(=O)C(=O)N3CCCC[C@H]3C(=O)O2)C[C@H]1OC [biolimus A9]
[6]; 100 nM, western blotting
  expression of EPCR in HCAECs: inhibit expression of the EPCR in HCAECs

## CO[C@H]1C[C@@H]2CC[C@@H](C)[C@@](O)(O2)C(=O)C(=O)N2CCCC[C@H]2C(=O)O[C@H]([C@H](C)C[C@@H]2CC[C@@H](OP(C)(C)=O)[C@H](OC)C2)CC(=O)[C@H](C)/C=C(\C)[C@@H](O)[C@@H](OC)C(=O)[C@H](C)C[C@H](C)/C=C/C=C/C=C/1C [deforolimus]
[6]; 100 nM, western blotting
  expression of EPCR in HCAECs: inhibit expression of the EPCR in HCAECs

## CO[C@H]1C[C@@H]2CC[C@@H](C)[C@@](O)(O2)C(=O)C(=O)N2CCCC[C@H]2C(=O)O[C@H]([C@H](C)C[C@@H]2CC[C@@H](OCCO)[C@H](OC)C2)CC(=O)[C@H](C)/C=C(\C)[C@@H](O)[C@@H](OC)C(=O)[C@H](C)C[C@H](C)/C=C/C=C/C=C/1C [everolimus]
[6]; [11]
  expression of EPCR in HCAECs: inhibit expression of an EPCR in HCAECs in a concentration-dependent manner
[7]
  expression of EPCR in mouse cardiac vessels: inhibit expression of the EPCR in mouse cardiac vessels

## CC(=O)O[C@H]1C(=O)[C@@]2(C)[C@H]([C@H](OC(=O)c3ccccc3)[C@]3(O)C[C@H](OC(=O)[C@H](O)[C@@H](NC(=O)c4ccccc4)c4ccccc4)C(C)=C1C3(C)C)[C@]1(OC(C)=O)CO[C@@H]1C[C@@H]2O [paclitaxel]
[6]; [11]
  expression of EPCR in HCAECs: inhibit expression of an EPCR in HCAECs in a concentration-dependent manner
[7]
  expression of EPCR in mouse cardiac vessels: inhibit expression of the EPCR in mouse cardiac vessels

## CC[C@@H]1/C=C(\C)C[C@H](C)C[C@H](OC)[C@H]2O[C@@](O)(C(=O)C(=O)N3CCCC[C@H]3C(=O)O[C@H](/C(C)=C/[C@@H]3CC[C@H](Cl)[C@H](OC)C3)[C@H](C)[C@@H](O)CC1=O)[C@H](C)C[C@@H]2OC [pimecrolimus]
[6]; 100 nM, western blotting
  expression of EPCR in HCAECs: inhibit expression of the EPCR in HCAECs

## C=CC[C@@H]1/C=C(\C)C[C@H](C)C[C@H](OC)[C@H]2O[C@@](O)(C(=O)C(=O)N3CCCC[C@H]3C(=O)O[C@H](/C(C)=C/[C@@H]3CC[C@@H](O)[C@H](OC)C3)[C@H](C)[C@@H](O)CC1=O)[C@H](C)C[C@@H]2OC [tacrolimus]
[6]; 100 nM, western blotting
  expression of EPCR in HCAECs: inhibit expression of the EPCR in HCAECs

## CO[C@H]1C[C@@H]2CC[C@@H](C)[C@@](O)(O2)C(=O)C(=O)N2CCCC[C@H]2C(=O)O[C@H]([C@H](C)C[C@@H]2CC[C@H](n3cnnn3)[C@H](OC)C2)CC(=O)[C@H](C)/C=C(\C)[C@@H](O)[C@@H](OC)C(=O)[C@H](C)C[C@H](C)/C=C/C=C/C=C/1C [zotarolimus]
[6]; [11]
  expression of EPCR in HCAECs: inhibit expression of an EPCR in HCAECs in a concentration-dependent manner
[7]
  expression of EPCR in mouse cardiac vessels: inhibit expression of the EPCR in mouse cardiac vessels

## activated protein C [APC]
Neutrophils on HCAECs
  adhesion of neutrophils to surface of ECs: inhibit adhesion
Platelets on HCAECs
  adhesion of platelets to surface of ECs: inhibit adhesion
[8]
  multiplication capacity of vascular smooth muscle cells: does not affect
HCAECs [1]
  viability of HCAECs on 316 L stainless steel: restore
HCAECs [2]
  multiplication of HCAECs on 316 L stainless steel: restore
[3]
  activation of the EPCR pathway in HCAECs: protectively activate the EPCR pathway
  protein expression of the EPCR in HCAECs: induce protein expression of the EPCR in the cells
  effect on the rapamycin-induced inhibition of the EPCR in HCAECs: antagonize the inhibitory effect of limus drugs such as rapamycin on the EPCR
[9]
  cell viability of vascular smooth muscle cells: does not affect
HCAECs [4]
  migration of HCAECs on 316 L stainless steel: restore
HCAECs [5]
  growth of HCAECs on 316 L stainless steel: restore
[10]
  migration capacity of vascular smooth muscle cells: does not affect
